# Experimental data as given in article PMC6977461 (Chemical Science, 2019).
# *1 amine or outer side, *2 acyl side, *3 side chain or, on linkers, in order; H or OH if unused. The star is where a group is joined. X1 = C[C@@H](CN*)NC(=O)[C@@H](N)Cc1c[nH]cn1; CO = O=C([*:1])[*:2]
# Columns and labels:
# [1] = target: T1, mouse GLP-1 receptor (Mus musculus, UniProt O35659); test: cAMP production in βTC6 cells expressing GLP-1R endogenously (Method C2); type: cell-based
# T1 construct: βTC6 cells which express GLP-1R endogenously; host or cells: βTC6 cells
# T1 sequence (O35659 22-463): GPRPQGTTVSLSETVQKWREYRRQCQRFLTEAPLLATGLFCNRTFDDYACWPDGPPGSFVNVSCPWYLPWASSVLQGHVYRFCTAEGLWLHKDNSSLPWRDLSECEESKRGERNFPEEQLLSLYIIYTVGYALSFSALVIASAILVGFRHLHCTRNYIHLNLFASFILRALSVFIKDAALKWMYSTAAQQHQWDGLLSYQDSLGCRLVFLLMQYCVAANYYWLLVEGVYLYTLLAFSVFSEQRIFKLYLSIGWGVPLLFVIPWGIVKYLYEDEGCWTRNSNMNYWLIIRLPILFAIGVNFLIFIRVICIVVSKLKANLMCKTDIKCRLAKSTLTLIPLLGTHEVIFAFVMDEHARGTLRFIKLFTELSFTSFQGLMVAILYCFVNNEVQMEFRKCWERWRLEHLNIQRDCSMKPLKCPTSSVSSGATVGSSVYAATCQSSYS
# Description:  HEK-293T cells (Multispan inc., lot#.DC1267-062017) were suspended in cell culture media
# (DMEM 1X + GlutaMAX (Gibco 31966-021)) complemented with FBS 10% (Sigma Aldrich
#  βTC6 cells were suspended in HBSS buffer (Invitrogen) complemented with 20 mM HEPES (pH
# In vitro pharmacology on HEK-293T cells (EC50: Method C1)
# cells (Multispan inc., lot#.DC1267-062017) was determined by measuring their effects on cAMP
# production using the HTRF detection method (performed by UREkA SARL). The cells were distributed
# in 384-well microplates at a density of 1.0x10^4 cells/well. Stock solutions of the test compounds or the
# reference agonist were prepared at a concentration of 1 mM in DMSO. Then, compounds to be tested
# were diluted in cell culture media and transferred to the plate containing the cells to reach final assay
# [2] = system: C57BL/6J mice; test: dose-response study in healthy mice, IPGTT 6 h after agonist; type: in vivo, mouse
# Description: Mice were lightly fasted (4 hours) before IP administration of varying doses of each agonist or vehicle (100 µL saline). After a further 6 hours, blood glucose was measured (GlucoRx) from the tail followed by IP administration of 2 g/kg 20% glucose. Blood glucose was monitored at 20, 40 and 60 minute time- […]
# performed on the area-under-curve for each set of data.
# Study in db/db mice (15 days).
# After the acclimation period of 5 days, male db/db mice 8 weeks old (Charles River laboratories) were randomized into groups (n=10) according to their body weight, HOMA-IR and HbA1C measured after an overnight fast and 8 non diabetic mice were excluded. Mice were chronically treated during 15 days via s.c. route (once daily) at around 8AM with the vehicle or with 100 µg kg-1 (25 nmol kg-1) of the oligomers. Formulation: 20 µg mL-1 in PBS 1×. On the 7th day of treatment, fed blood glucose was […]
# On the 12th day of treatment, mice were fasted 6 hours and an OGTT (glucose 1 g kg-1 p.o.) was performed 6 hours (2 PM) after the dosing. Blood glucose was […]
# On the 15th day of treatment, mice were fasted 6 hours and an ITT (insulin 2 U kg-1 i.p.) was performed 6 hours (2 PM) after the dosing. […]
# samples were collected for measuring HbA1c just before the start of the treatments and at the end of […]
# Fifteen mice (male C57BL/6J mice (Janvier Labs, France) 9 weeks old, 20-25 g) were treated with GLP-1 analogues via i.v. injections (2 mg kg-1) formulated at 1 mg mL-1 in PBS 1×. After different time points mice were sacrificed and blood sample were collected. The plasma was separated by centrifugation and the samples were frozen at -80°C before analysis. A volume of 400 µL of each sample of plasma was mixed with 1 ml of acetonitrile to precipitate the protein and extract the compound. The sample were then vortexed and centrifuged (15 000 × g, 5 min, 16 °C) to sediment the precipitated protein.
# The supernatant was analysed by LC-MS/MS using a UHPLC coupled to LC-MS 8030 Shimadzu triple […]
# Molecular dynamics simulation of GLP-1R in complex with ureidopeptide 3 […]
# Human GLP-1R which shares […]
# [3] = target: T2, SNAP-tagged human GLP-1R (Homo sapiens, UniProt P43220); test: SNAP-GLP-1R internalization by confocal microscopy in INS-1 832/3 cells; type: cell-based; details: 10 nM ligand, 30 min, versus non-ureido peptides
# T2 construct: host or cells: INS-1 832/3 cells with endogenous GLP-1R deleted by CRISPR/Cas9
# T2 sequence (P43220 24-463): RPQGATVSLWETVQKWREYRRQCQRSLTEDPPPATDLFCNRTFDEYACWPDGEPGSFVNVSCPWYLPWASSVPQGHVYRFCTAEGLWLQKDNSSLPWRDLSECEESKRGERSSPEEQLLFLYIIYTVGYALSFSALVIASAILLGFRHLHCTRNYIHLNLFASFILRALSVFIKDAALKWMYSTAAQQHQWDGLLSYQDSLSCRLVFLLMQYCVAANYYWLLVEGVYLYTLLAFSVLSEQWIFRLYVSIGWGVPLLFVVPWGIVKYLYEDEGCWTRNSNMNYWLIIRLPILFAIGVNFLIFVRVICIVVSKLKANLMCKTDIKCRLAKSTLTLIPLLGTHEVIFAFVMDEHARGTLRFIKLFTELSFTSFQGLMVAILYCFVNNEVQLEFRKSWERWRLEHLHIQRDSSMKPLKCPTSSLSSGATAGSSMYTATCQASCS
# [4] = target: T3, GLP-1R (Homo sapiens, UniProt P43220); test: β-arrestin-2 recruitment assay in PathHunter CHO-GLP-1R cells; type: cell-based; set-up: host or cells: PathHunter CHO-GLP-1R-βarr2 cells; details: 30 min stimulation at 37 °C, n = 5, versus non-ureido parents 10 and 13
# T3 sequence (P43220 24-463): as above
# Description: (§1) signal measured at 665 nm by that measured at 620 nm (ratio). The results are expressed as a percent […]
# (§2) tested in each experiment at several concentrations to generate a concentration-response curve from which its EC50 value and SE are calculated using GraphPad Prism.
# (§3) In vitro pharmacology on immortalised CHO-GLP-1R cells (EC50: Method C3) PathHunter CHO-GLP-1R cells were stimulated for 30 min at 37°C with indicated concentration of agonist in serum free medium without phosphodiesterase inhibitors. The reaction was terminated by addition of cAMP detection reagents (cAMP Dynamic 2, Cisbio) and read by HTRF.
# (§4) β-arrestin-2 recruitment assay […]
# (§5) agonist in serum free medium. The reaction was terminated by addition of PathHunter detection reagents (DiscoverX) and luminescent signal recorded.
# (§6) Calculation of signal bias
# (§7) Biased signalling was quantified using a modified form of the operational model.[6] LogR values were calculated for each ligand in each assay, and ∆LogR were determined by subtracting from the […]
# (§8) Bias was then determined as ∆∆LogR by subtracting ∆LogR for […]
# [5] = target: T3, GLP-1R; test: signal bias, cAMP vs β-arrestin-2, PathHunter CHO-GLP-1R cells (operational model); type: cell-based; set-up: host or cells: PathHunter CHO-GLP-1R-βarr2 cells; details: relative to GLP-1-NH2 (2), n = 5
# Description: as §1, §2, §3, §4, §5, §6, §7, §8
# [6] = healthy C57BL/6J mice, 0.01 to 10 nmol kg-1 i.p., IPGTT 6 h after dose, 3-parameter fit of AUC, n = 8
substance,measurement,setting,value
{X1-CO}-EGTFTSDLSKQLEEEAVRLFIEWLKNGGPSSGAPPSKKKKKK-NH2 [compound 14],"Potency (%), Table S1","[1]; from EC50 in βTC6 cAMP assay, footnote: compare to GLP-1-NH2 (2)",118%
same,EC50,"[1]; read-out: EC50 (GLP-1R potency), Table S1",0.09 nM
same,improvement of ED50 versus parent peptide,"[2]; 11 versus exenatide (9), 14 versus LixiL (13)",five-fold improvement
same,ED50 (printed in Fig. 4),[2]; [6],0.47
same,ED50 in vivo,[2]; [6],0.46 nmol/kg
same,endocytosis of the GLP-1R,[3],noticeably reduced
same,recruitment of β-arrestin to GLP-1R,[4],selectively diminished
same,signal bias (cAMP vs β-arrestin-2),[5],strong preference for cAMP signalling
